Experimental data: US4743619A, “Method of treating hepatitis” (American Home Products Corporation, priority 1986, dated 1988)

Biological target: T1, polymerase of hepatitis B virus (Hepatitis B virus genotype D subtype ayw, UniProt P03156)
T1 construct: the Dane particles were isolated from HBV-infected human blood; from tissue; host or cells: Dane particles (HBV virions) isolated from HBV-infected human blood
Test: in vitro endogenous DNA polymerase assay (Dane particles, radioactive nucleotide incorporation into viral DNA)
Assay type: biochemical
Conditions: for inhibition at 0.01 µg/mL: 0.01 μg/ml; for inhibition at 0.01 µg/mL / inhibition at 0.1 µg/mL: 37° C., 2 hours, Dane particle DNA polymerase; for inhibition at 0.1 µg/mL: 0.1 μg/ml; for inhibition of the polymerase of hepatitis B virus (in words): according to the endogenous DNA polymerase procedure
Procedure: Ten microliters of Dane particles were incubated at 37° C. for 2 hours in 100 μl containing 0.5% NP40, 0.07% BME, 66 mM Tris HCl (pH 7.6) 27 mM MgCl2, 0.40 mM NH4 Cl, 0.3 mM dATP, dGTP, and dTTP and 4 picomoles α^32 P-dCTP. The appropriate tubes also contained either 0.1 μg/ml or 0.01 μg/ml of the rifamycin derivatives (a), (b), (c), (d), or (e). The quantity of incorporation of radioactive nucleotides into viral DNA was determined by trichloroacetic acid precipitation as described by Landers et al., J. Virol. 23: 368-376, 1977. The control DNA polymerase reaction contained more than 20,000 cpm.

T1 sequence (P03156 whole entry): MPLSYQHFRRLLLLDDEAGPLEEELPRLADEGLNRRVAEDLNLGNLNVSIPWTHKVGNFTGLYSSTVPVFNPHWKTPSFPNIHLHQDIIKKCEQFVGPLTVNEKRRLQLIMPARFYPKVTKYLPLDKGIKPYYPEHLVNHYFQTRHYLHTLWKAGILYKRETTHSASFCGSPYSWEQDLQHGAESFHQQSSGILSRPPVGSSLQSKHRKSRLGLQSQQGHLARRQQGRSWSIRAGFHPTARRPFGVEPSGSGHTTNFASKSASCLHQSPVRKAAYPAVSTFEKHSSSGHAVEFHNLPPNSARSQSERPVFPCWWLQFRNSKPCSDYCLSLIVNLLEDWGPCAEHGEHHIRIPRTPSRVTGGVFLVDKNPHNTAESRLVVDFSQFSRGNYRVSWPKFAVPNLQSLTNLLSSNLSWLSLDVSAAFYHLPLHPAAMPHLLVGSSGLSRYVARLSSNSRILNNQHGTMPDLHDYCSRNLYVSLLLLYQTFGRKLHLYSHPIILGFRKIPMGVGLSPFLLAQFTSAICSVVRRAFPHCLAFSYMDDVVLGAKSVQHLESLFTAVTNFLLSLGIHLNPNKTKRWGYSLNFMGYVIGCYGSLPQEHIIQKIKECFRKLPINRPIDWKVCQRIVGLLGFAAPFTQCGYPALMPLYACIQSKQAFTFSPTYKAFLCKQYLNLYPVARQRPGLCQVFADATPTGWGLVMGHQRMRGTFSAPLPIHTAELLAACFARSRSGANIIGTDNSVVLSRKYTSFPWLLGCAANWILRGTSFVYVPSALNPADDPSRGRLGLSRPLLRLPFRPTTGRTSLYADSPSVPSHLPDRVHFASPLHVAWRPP

Row | SMILES | inhibition at 0.01 µg/mL [%] | inhibition at 0.1 µg/mL [%] | inhibition of the polymerase of hepatitis B virus (in words)
1 | CO[C@H]1/C=C/O[C@@]2(C)Oc3c(C)c(O)c4c(c3C2=O)C(=N)C(N)=C(NC(=O)/C(C)=C\C=C\[C@H](C)[C@H](O)[C@@H](C)[C@@H](O)[C@@H](C)[C@H](OC(C)=O)[C@@H]1C)C4=O [(a), 3-amino-4-deoxo-4-imino-rifamycin S] | 17.2 | 54.1 | –
2 | CO[C@H]1/C=C/O[C@@]2(C)Oc3c(C)c(O)c4c(O)c(c(N)c(NS(=O)(=O)c5ccc(N)cc5)c4c3C2=O)NC(=O)/C(C)=C\C=C\[C@H](C)[C@H](O)[C@@H](C)[C@@H](O)[C@@H](C)[C@H](OC(C)=O)[C@@H]1C [(b), 3-amino-4-deoxo-4-[(4-aminophenyl)sulfonyl]amino-rifamycin SV] | 10 | 89 | inhibit the polymerase of hepatitis B virus
3 | CCCCS(=O)(=O)Oc1c(C=NN2CCCCC2)c2c(O)c3c(O)c(C)c4c(c13)C(=O)[C@@](C)(O/C=C/[C@H](OC)[C@@H](C)[C@@H](OC(C)=O)[C@H](C)[C@H](O)[C@H](C)[C@@H](O)[C@@H](C)/C=C/C=C(/C)C(=O)N2)O4 [(c), 4-O-(n-butylsulfonyl)-3-[(1-piperidinylimino)methyl]-rifamycin SV] | 8.3 | 55.7 | inhibit the polymerase of hepatitis B virus
4 | CCCCS(=O)(=O)Oc1c(C=NN2CCOCC2)c2c(O)c3c(O)c(C)c4c(c13)C(=O)[C@@](C)(O/C=C/[C@H](OC)[C@@H](C)[C@@H](OC(C)=O)[C@H](C)[C@H](O)[C@H](C)[C@@H](O)[C@@H](C)/C=C/C=C(/C)C(=O)N2)O4 [(d), 4-O-(n-butylsulfonyl)-3-[(4-morpholinylimino)methyl]-rifamycin SV] | 10.2 | 92.5 | inhibit the polymerase of hepatitis B virus

More lines, main results first:

Row | inhibition at 0.01 µg/mL [%] | inhibition at 0.1 µg/mL [%] | SMILES | inhibition of the polymerase of hepatitis B virus (in words)
5 | 25.1 | 85.6 | CO[C@H]1/C=C/O[C@@]2(C)Oc3c(C)c(O)c4c(O)c(c(C=NN(C)C)c(OS(=O)(=O)CCCc5ccccc5)c4c3C2=O)NC(=O)/C(C)=C\C=C\[C@H](C)[C@H](O)[C@@H](C)[C@@H](O)[C@@H](C)[C@H](OC(C)=O)[C@@H]1C [(e), 3-[(dimethylhydrazono)methyl]-4-O-[(3-phenylpropyl)sulfonyl]-rifamycin SV] | inhibit the polymerase of hepatitis B virus
6 | 23.8 | 84.6 | COC1C=COC2(C)Oc3c(C)c(O)c4c(O)c(c5c(c4c3C2=O)N(S(C)(=O)=O)C(C)N5)NC(=O)C(C)=CC=CC(C)C(O)C(C)C(O)C(C)C(OC(C)=O)C1C (centres unmarked) [(f), 4-deoxo-N,3-ethylidenimino-4-(methylsulfonyl)amino rifamycin SV] | inhibit the polymerase of hepatitis B virus
